Measurements from patent US20220218832A1, “POLYMER DRUG” (BIODYNAMIC RESEARCH FOUNDATION, priority 2019, published 2022).

Legend:
[1] = tested on: mouse colon cancer cells (C26); test: In vitro cytotoxicity, MTT, mouse colon cancer cells C26 (Test Example 3); format: cell-based; settings: ordinary medium containing 0.1% glucose
Protocol: These C26 cells subcultured intraperitoneally in mice were washed with a MEM medium (centrifugation, 1,500 rpm) and then adjusted the number of cells to 10^5/ml. […] Firstly, the above cells were cultured at a normal oxygen partial pressure for 24 to 30 hours, and then the culture medium [Petri dish, 96 wells] was transferred to a microaerobic conditions, which was made by adding a commercially available oxygen absorber to an anaerobic culture chamber, i.e., a hypoxic agent (oxygen absorber), AnaeroPack—Micro aero generator manufactured by Mitsubishi Gas Chemical Company, Inc., Tokyo, was added into an anaerobic culture chamber to be a microaerobic (hypoxic) oxygen partial pressure (6 to 9%). The sealed chamber used in this test was a medium square jar (3.5 L) manufactured by Sugiyama-Gen Co., Ltd., Tokyo. In this state, the reagents to be examined were added to each medium at a predetermined concentration, and further cultured for 36 hours. After that, the number of living cells was measured by the above MTT method.

[2] = Particle size by dynamic light scattering; format: physicochemical; settings: 0.1 M tris-HCl buffer (pH 8.2), 15 mg/ml, 25° C.
Protocol: Then, each solution was measured at 25° C. by a light scattering apparatus, Model ELSZ⋅2000ZS manufactured by Otsuka Electronics (Photal Inc., Osaka).

[3] = Surface charge (Zeta potential); format: physicochemical; settings: deionized water, 20 mg/ml
[4] = pH of lyophilized product dissolved in distilled water; format: physicochemical
[5] = Solubility of lyophilized product in distilled water; format: physicochemical; settings: attempted 10 mg/ml solution
Colon cancer C26 cells = test: In vitro cytotoxicity under normoxic and hypoxic partial pressures for 48 hours, C26 cells (Test Example 4); format: cell-based, mouse; settings: especially under low oxygen partial pressures
Protocol: (§1) Colon cancer C26 and HeLa cells (1×10^4 cells/well) were seeded in Falcon 96-well culture plates and cultured overnight at 37° C. in Eagle MEM containing 10% FBS under normoxic partial pressure (5% CO2, 95% air) and hypoxic partial pressure (using a hypoxic chamber, pO2 6-8%). […] Finally, cell viability was analyzed by MTT assay.
(§2) C26 and HeLa cells were also cultured as described above (FIGS. 7A and 7B) and treated with glucosamine (G) and SMA-glucosamine (SG). Finally, cell viability was measured by MTT assay.

HeLa cells [6] = test: In vitro cytotoxicity under normoxic and hypoxic partial pressures for 48 hours, HeLa cells (Test Example 4); format: cell-based; settings: especially under low oxygen partial pressures
Protocol: as §1, §2

HeLa cells [7] = settings: aerobic conditions, 24 hours drug treatment
Protocol: The culture of cells was performed in an Eagle MEM medium supplied with 10% fetal calf serum at 37° C. in 95% air/5% CO2. […] After that, the medium was replaced with a fresh medium and the culture was performed for further 24 hours. Then, viable cells was measured by the MTT method.

[8] = tested on: Escherichia coli (E. coli)
Protocol: (§3) Firstly, in a Falcon plastic plate with 96 wells, 0.1 ml of Mueller-Hinton medium was added to each well, followed by 10 μl of suspension of each bacterium (10^4/well).

Staphylococcus aureus = tested on: Staphylococcus aureus
Protocol: as §3

[9] = 24 hours, 37° C., boric acid equivalent

N[C@H]1C(O)O[C@H](CO)[C@@H](O)[C@@H]1O (stereo partly shown) [glucosamine, reference compound]
Cytostatic action, rank order [1]: strengthened in the order of (A) free glucosamine, (B) SG and (C) SGB

SMA-glucosamine conjugate [SG]
Average particle size (dynamic light scattering method) in diameter [2]: 90 ± 3 nm | Surface charge (Zeta potential) [3]: −27 mV | Intrinsic pH in solution of lyophilized product in distilled water [4]: 8.5 | Solubility in distilled water [5]: poorly soluble | Cytostatic action, rank order [1]: strengthened in the order of (A) free glucosamine, (B) SG and (C) SGB | Cytotoxicity (cell viability, MTT) (Colon cancer C26 cells): very potent cytotoxicity | Cytotoxicity (cell viability, MTT) (HeLa cells [6]): very potent cytotoxicity

SMA-glucosamine-boric acid complex [SGB]
Growth of cancer cells (cell viability, MTT) (HeLa cells [7]): significantly suppressed | Cytostatic action, rank order [1]: strengthened in the order of (A) free glucosamine, (B) SG and (C) SGB | Antibacterial activity compared with boric acid [8]: stronger antibacterial activity than boric acid | Concentration of boric acid at which antibacterial activity was shown [8, 9]: lower than 10 mg/ml | Antibacterial activity under more anaerobic conditions ([8]; more anaerobic conditions): further increased | Antibacterial activity compared with boric acid (Staphylococcus aureus): stronger antibacterial activity than boric acid | Concentration of boric acid at which antibacterial activity was shown (Staphylococcus aureus; [9]): lower than 10 mg/ml | Antibacterial activity under more anaerobic conditions (Staphylococcus aureus; more anaerobic conditions): further increased
